IC50 and EC50 data for 25 molecules are collected here from ChEMBL document CHEMBL1201862, “PubChem BioAssay data set” (2004).

Assay [1] addresses T1, Rac GTPase-activating protein 1 (Homo sapiens, UniProt Q9H0H5).
T1 sequence (Q9H0H5 whole entry): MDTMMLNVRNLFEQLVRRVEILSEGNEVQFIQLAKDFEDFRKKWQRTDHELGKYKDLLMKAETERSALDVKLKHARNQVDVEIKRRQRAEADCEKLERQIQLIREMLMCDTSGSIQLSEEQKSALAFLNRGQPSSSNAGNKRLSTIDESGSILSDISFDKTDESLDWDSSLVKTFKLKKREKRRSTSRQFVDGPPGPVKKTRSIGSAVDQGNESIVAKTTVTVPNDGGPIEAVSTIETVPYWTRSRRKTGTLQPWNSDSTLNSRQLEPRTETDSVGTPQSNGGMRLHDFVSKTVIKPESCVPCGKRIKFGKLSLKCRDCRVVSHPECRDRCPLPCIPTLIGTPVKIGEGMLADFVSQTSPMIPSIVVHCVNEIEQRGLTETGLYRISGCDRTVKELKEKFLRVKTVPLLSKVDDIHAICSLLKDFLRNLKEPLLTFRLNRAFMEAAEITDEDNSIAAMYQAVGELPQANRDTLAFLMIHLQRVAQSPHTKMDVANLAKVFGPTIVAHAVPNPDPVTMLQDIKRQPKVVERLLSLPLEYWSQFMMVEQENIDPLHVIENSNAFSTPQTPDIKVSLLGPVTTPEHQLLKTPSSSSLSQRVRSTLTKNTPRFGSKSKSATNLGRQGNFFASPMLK
Kind of assay: blockers of MgcRacGAP-driven Rac1 GTP hydrolysis – biochemical, ADP Hunter fluorescence, primary and confirmatory, confirmation (AID 624330). Type of assay: functional.

Assay [2] has as its target T2, Corticotropin-releasing factor receptor 2/Corticotropin-releasing factor-binding protein (Homo sapiens, UniProt P24387+Q13324).
T2 sequence (Q13324 whole entry): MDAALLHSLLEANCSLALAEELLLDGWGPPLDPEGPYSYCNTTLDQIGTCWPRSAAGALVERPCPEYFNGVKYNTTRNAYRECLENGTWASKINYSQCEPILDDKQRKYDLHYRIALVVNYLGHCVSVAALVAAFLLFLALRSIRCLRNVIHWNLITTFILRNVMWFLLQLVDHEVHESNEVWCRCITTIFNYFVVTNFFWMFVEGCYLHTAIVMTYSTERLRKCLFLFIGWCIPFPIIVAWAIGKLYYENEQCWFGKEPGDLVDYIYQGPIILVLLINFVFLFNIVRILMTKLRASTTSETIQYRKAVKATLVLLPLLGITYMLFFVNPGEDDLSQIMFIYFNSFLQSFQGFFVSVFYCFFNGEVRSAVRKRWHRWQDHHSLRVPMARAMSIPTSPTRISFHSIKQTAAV
T2 sequence (P24387 whole entry): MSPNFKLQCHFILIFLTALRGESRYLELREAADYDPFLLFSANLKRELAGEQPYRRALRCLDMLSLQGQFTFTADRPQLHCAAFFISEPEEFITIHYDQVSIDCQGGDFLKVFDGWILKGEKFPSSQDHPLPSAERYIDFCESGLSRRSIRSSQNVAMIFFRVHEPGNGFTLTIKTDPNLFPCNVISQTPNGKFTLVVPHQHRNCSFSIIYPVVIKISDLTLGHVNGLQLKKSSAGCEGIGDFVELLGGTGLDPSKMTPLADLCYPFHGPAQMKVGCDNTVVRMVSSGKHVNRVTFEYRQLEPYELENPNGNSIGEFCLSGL
Kind of assay: activators of CRF receptor 2 with binding protein – uHTS hits, confirmation (AID 602473). Type of assay: functional. The conditions noted are these: read-out: EC50_Mean.

Assay [3] addresses T2, Corticotropin-releasing factor receptor 2/Corticotropin-releasing factor-binding protein. Kind of assay: Dose Response confirmation of uHTS hits for small molecule antagonists of the CRF-binding protein and CRF-R2 receptor complex. Type of assay: functional. The conditions noted are these: read-out: IC50_Mean.
Assay [4] concerns the target Nonstructural protein 1 (Influenza A virus, UniProt Q194T2). Type of assay: functional, Influenza A virus (A/California/07/2009(H1N1)).
For assay [5], the target named is T3, Ubiquitin-conjugating enzyme E2 N (Homo sapiens, UniProt P61088).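 Also: Dose-response confirmation in a TR-FRET assay detecting UBC13-driven polyubiquitin chain formation, inhibition measured.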
T3 sequence (P61088 whole entry): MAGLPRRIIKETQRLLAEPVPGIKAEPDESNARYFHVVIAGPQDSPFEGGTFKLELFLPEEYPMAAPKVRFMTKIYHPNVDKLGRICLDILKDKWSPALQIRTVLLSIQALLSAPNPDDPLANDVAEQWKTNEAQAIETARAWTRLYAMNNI
Type of assay: functional.

The target of assay [6] is T4, Carboxy-terminal domain RNA polymerase II polypeptide A small phosphatase 1 (Homo sapiens, UniProt Q9GZU7).
T4 sequence (Q9GZU7 whole entry): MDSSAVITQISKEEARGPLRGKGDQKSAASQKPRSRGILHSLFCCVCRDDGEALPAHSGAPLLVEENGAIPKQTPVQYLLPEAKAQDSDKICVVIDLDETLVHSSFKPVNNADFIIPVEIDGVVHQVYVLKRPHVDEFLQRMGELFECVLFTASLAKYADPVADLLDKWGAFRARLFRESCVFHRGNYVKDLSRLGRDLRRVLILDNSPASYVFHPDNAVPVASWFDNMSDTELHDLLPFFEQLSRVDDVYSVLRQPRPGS
Kind of assay: CTDSP1 inhibitors, concentration-response, biochemical, absorbance readout, ultra-high-throughput screen actives (AID 540297). Type of assay: functional.

The target in assay [7] is T5, Protein skinhead-1 (Caenorhabditis elegans, UniProt P34707).
T5 sequence (P34707 whole entry): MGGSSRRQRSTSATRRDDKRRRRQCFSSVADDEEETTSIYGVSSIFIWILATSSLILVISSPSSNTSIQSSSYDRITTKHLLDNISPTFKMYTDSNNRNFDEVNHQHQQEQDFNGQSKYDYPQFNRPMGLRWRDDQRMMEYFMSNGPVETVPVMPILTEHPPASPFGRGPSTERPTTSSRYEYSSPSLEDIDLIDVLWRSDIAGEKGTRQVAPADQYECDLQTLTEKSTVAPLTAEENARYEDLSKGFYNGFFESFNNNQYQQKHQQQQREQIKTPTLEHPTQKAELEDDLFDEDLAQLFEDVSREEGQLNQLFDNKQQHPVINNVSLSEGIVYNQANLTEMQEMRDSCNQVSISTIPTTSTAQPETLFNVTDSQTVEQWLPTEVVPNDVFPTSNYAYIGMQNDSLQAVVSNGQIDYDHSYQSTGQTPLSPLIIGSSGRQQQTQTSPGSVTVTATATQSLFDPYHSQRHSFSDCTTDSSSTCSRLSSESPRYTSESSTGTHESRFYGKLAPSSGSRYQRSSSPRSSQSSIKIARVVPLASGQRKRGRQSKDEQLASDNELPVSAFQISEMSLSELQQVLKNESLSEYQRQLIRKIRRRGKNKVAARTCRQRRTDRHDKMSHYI
The format is functional.

In assay [8] the target is T6, Streptokinase A (Streptococcus pyogenes serotype M1, UniProt P10520).
T6 sequence (P10520 whole entry): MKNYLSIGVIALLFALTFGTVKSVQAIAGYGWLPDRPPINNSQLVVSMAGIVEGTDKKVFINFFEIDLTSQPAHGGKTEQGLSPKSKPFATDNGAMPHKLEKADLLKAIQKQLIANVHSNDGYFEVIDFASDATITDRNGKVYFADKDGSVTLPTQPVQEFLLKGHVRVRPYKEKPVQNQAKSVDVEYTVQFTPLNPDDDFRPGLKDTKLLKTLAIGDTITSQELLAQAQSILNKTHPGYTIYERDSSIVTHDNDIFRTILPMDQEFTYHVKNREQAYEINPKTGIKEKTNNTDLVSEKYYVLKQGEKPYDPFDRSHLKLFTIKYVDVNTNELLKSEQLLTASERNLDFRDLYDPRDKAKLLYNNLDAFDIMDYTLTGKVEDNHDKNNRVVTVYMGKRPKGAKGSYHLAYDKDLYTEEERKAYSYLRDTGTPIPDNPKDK
Kind of assay: viability-normalized secreted streptokinase activity reduction – plasminogen activation absorbance, OD405, dose response (AID 1914).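 Also: secreted streptokinase activity via plasminogen activation per viability signal from cell pellet.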 The format is functional, Streptococcus pyogenes M1 GAS.

Assay [9] deals with Streptococcus sp. 'group A'. The assay can be described thus: Streptococcus pyogenes SK(-)GAS viability under kanamycin – luminescence, BacTiterGlo, confirmation, counter-screen for streptokinase expression inhibitor project, dose response (AID 1900). Type of assay: functional, organism-based.
For assay [10], the system named is Streptococcus. Kind of assay: GAS UMAA2166 growth inhibition – luminescence, BacTiterGlo, counter-screen for streptokinase expression inhibitor project, dose response (AID 1915).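 Also: potency for reduction of bacterial viability or growth.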 The format is functional, organism-based.
Assay [11] is described as follows: fluconazole-exposed Candida albicans growth modulators – fluorescence, retest, confirmation (AID 2467). The format is functional, cell-based.
Assay [12] in a line: NIH-3T3 fibroblast cytotoxicity, dose response, cytotoxicity control, cell-based, fluorescence, Alamar Blue, secondary assay (AID 2327).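 Also: NIH-3T3 mouse fibroblasts cultured with fluconazole at 8 µg/mL.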 The format is functional.

Activity calls are given as the source filed them. Bounds are passed on as bounds.

Chain of Nonstructural protein 1 (Q194T2 whole entry): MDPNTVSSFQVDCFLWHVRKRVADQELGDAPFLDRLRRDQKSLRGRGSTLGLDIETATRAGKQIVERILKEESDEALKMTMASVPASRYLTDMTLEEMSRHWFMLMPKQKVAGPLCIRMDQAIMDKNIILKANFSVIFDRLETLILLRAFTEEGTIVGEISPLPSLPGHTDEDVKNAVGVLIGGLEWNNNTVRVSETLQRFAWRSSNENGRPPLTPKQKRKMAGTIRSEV

Turning to `O=C(COc1ccccc1)N1CCN(C2CCCC2)CC1`, the IC50 in assay [1] was 127 µM (active).

As for `O=C(COc1cccc2c1CCN(Cc1ccc(Br)cc1)C2=O)NCc1ccco1`, the EC50 in assay [2] was > 53 µM (inactive). For the same molecule, the IC50 in assay [3] was > 47.1 µM (inactive).

Regarding `CCCC(=O)NC(=S)Nc1cccc2c(O)cccc12`, the IC50 in assay [1] was 47.7 µM (active).

Turning to `COc1ccc(C(CCNCc2ccc(N(C)C)cc2)C(C)C)cc1` (stereo not given), the IC50 in assay [4] is 39.1 µM (active). For the molecule `Cc1ccccc1CN1CCC(CNC(=O)C2CCCN(c3ncnc4c3nc3n4CCCCC3)C2)CC1` (stereo not given), the IC50 in [5] was > 20 µM (inactive). As for `CCOC(=O)C1=C(c2ccccc2)O/C(=C(\C(=O)OC)C(F)(F)F)S1`, the IC50 in assay [5] was > 20 µM (inactive). As for `OCCN1CCN(Cc2ccc3ccccc3c2)CC1`, the IC50 in assay [1] is 95.6 µM (active). The same measure, in the same setting: the same measure for `COc1cc(-c2nc3cnccn3c2Nc2ccc(C)cc2)ccc1O`: 29.3 µM (active). Consider `Cc1cc(C(=O)COc2ccc3ccc(=O)oc3c2)c(C)n1Cc1cccs1`, for which the IC50 in assay [6] is 6.2 µM (active).

Turning to `C=CCOc1ccc(/C=C\c2nc(O)c([N+](=O)[O-])c(O)n2)cc1OC`, in [6], the IC50 is 13.7 µM (active).

As to `COc1cc(OC)c2c(c1C(CCN1CCOCC1)c1ccc(N(C)C)cc1)OC(=O)CC2c1ccc(N(C)C)cc1` (stereo not given), the IC50 in [4] is 14.5 µM (active). Regarding `CCCCCc1cc(=O)oc2c(C(CCN3CCCC3)c3cc(OC)c(OC)c(OC)c3)c(OC)cc(OC)c12` (stereo not given), in assay [5], the IC50 was > 20 µM (inactive). As for `Cc1cc(C)nc(SCc2nnc(SCc3ccc([N+](=O)[O-])cc3)n2Cc2ccco2)n1`, the EC50 in assay [2] was > 53 µM (inactive). In addition, in assay [3], the IC50 is > 47.1 µM (inactive).

Take `COc1ccc(F)cc1S(=O)(=O)NCC(=O)NCc1cc(=O)n(C)c(=O)n1C`: the EC50 in assay [2] was > 53 µM (inactive). Besides, in assay [3], the IC50 was > 47.1 µM (inactive). Take `Cc1c(CC(=O)O)c(=O)oc2c(C)c3occ(-c4ccc(Br)cc4)c3cc12`: the IC50 in assay [6] is 7.37 µM (active).

As to `CCOc1ccc(N)cc1OC`, the IC50 in assay [1] is 42.9 µM (active). `C#CCOCCOCCOCCNc1nc(N2CCOCC2)nc(N2CCN(C(=O)CCCCCCCCCCNC(=O)[C@H](CO)n3cc(CCCCCN)nn3)CC2)n1`: in [5], the IC50 is > 20 µM (inactive). `c1ccc(-c2ccc(SCc3cccnc3)nn2)nc1`: the IC50 in assay [4] is 5.07 µM (active). Take `COC(=O)c1cc(NCc2ccccc2F)ccc1N1CCOCC1`: the IC50 in assay [1] is 168 µM (active). Consider `COC(=O)C1=C(C)N(Cc2ccccc2)C(NCc2cc(OC)c(OC)c(OC)c2)=N[C@H]1c1ccc(Br)cc1`, for which, in assay [5], the IC50 was > 20 µM (inactive).

Take `O=C1NC2(CCCCCC2)N=C1c1ccc(Br)cc1`: the IC50 in [5] is > 20 µM (inactive). Turning to `Nc1cccc2c1C(=O)c1ccc(Cl)cc1C2=O`, the IC50 in [7] is > 100 µM (inactive); in assay [4], 24.6 µM (active). With `Cc1ncc(CO)c(/C=N/NC(=S)Nc2ccc(Cl)c(Cl)c2)c1O`, the EC50 in [8] was > 150 µM (not active); in assay [9], 4.1 µM (active); in assay [10] it was 91.4 µM (active); in assay [11] it was > 38 µM (not active); in assay [12], 45.4 µM (inconclusive). For the same molecule, in assay [5], the IC50 was > 20 µM (inactive). For `CCOc1cccc(/C=N/NC(=S)NCCN2CCOCC2)c1O`, the IC50 in [4] is 16.5 µM (active). `N#CCSc1nc2sccc2c(=O)n1-c1ccccc1`: the EC50 in assay [2] is > 53 µM (inactive). Also, the IC50 in [3] is > 47.1 µM (inactive).
